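Interpolation was linear, between the two tested concentrations surrounding the appropriate level; five concentrations were tested over 48 hours in 96-well plates. GI50: concentration for 50% inhibition of growth.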 Activity calls are given as the source filed them. Cut-off read from the data, not from the text of the source: active = GI50 up to about 1.1 µM and inactive = higher.
Experiments:
Test in all cases: DTP human tumour cell line panel, 48 h
SK-MEL-5 = system: SK-MEL-5
MOLT-4 = system: MOLT-4
NCI-H460 = system: NCI-H460
SF-539 = system: SF-539
M14 = system: M14
COLO 205 = system: COLO 205
EKVX = system: EKVX
CAKI-1 = system: CAKI-1
SK-OV-3 = system: SK-OV-3
CCRF-CEM = system: CCRF-CEM
HCT-15 = system: HCT-15
NCI-H522 = system: NCI-H522
OVCAR-5 = system: OVCAR-5
OVCAR-4 = system: OVCAR-4
K562 = system: K562
UACC-62 = system: UACC-62
HOP-62 = system: HOP-62
SN12C = system: SN12C
HOP-92 = system: HOP-92
SK-MEL-28 = system: SK-MEL-28

Structure (SMILES): CC(=O)OCC1OC(OC2C(CSC3OC(COC(C)=O)C(OC(C)=O)C(OC(C)=O)C3OC(C)=O)OC(OC(C)=O)C(OC(C)=O)C2OC(C)=O)C(OC(C)=O)C(OC(C)=O)C1OC(C)=O (stereo not given)
- GI50 (SK-MEL-5): > 100 µM (inactive)
- GI50 (MOLT-4): > 100 µM (inactive)
- GI50 (NCI-H460): > 100 µM (inactive)
- GI50 (SF-539): > 100 µM (inactive)
- GI50 (M14): > 100 µM (inactive)
- GI50 (COLO 205): > 100 µM (inactive)
- GI50 (EKVX): > 100 µM (inactive)
- GI50 (CAKI-1): > 100 µM (inactive)
- GI50 (SK-OV-3): > 100 µM (inactive)
- GI50 (CCRF-CEM): > 100 µM (inactive)
- GI50 (HCT-15): > 100 µM
- GI50 (NCI-H522): > 100 µM (inactive)
- GI50 (OVCAR-5): 23.7 µM (inactive)
- GI50 (OVCAR-4): > 100 µM (inactive)
- GI50 (K562): > 100 µM (inactive)
- GI50 (UACC-62): > 100 µM (inactive)
- GI50 (HOP-62): > 100 µM (inactive)
- GI50 (SN12C): > 100 µM (inactive)
- GI50 (HOP-92): > 100 µM (inactive)
- GI50 (SK-MEL-28): > 100 µM (inactive)

Structure (SMILES): Cc1ccccc1C(O)(c1nccn1C)c1nccn1C
- GI50 (SK-MEL-5): > 100 µM (inactive)
- GI50 (MOLT-4): > 100 µM (inactive)
- GI50 (NCI-H460): > 100 µM (inactive)
- GI50 (SF-539): > 100 µM (inactive)
- GI50 (M14): > 100 µM (inactive)
- GI50 (COLO 205): > 100 µM (inactive)
- GI50 (EKVX): > 100 µM (inactive)
- GI50 (CAKI-1): > 100 µM (inactive)
- GI50 (SK-OV-3): > 100 µM (inactive)
- GI50 (CCRF-CEM): > 100 µM (inactive)
- GI50 (HCT-15): > 100 µM
- GI50 (NCI-H522): > 100 µM (inactive)
- GI50 (OVCAR-5): > 100 µM (inactive)
- GI50 (OVCAR-4): > 100 µM (inactive)
- GI50 (K562): > 100 µM (inactive)
- GI50 (UACC-62): > 100 µM (inactive)
- GI50 (HOP-62): > 100 µM (inactive)
- GI50 (SN12C): > 100 µM (inactive)
- GI50 (HOP-92): > 100 µM (inactive)
- GI50 (SK-MEL-28): > 100 µM (inactive)

From ChEMBL document CHEMBL1201862, “PubChem BioAssay data set” (2004)
